The target in assay [1] is T1, human histamine H3 receptor (Homo sapiens (Human), UniProt Q9Y5N1). Description: Radioligand competition binding assay, human H3 receptor. Particulars: [3H]-N-α-methylhistamine competition binding. (In general: Displacement assays read how much labelled ligand stays bound in the presence of the test substance.)
The target in assay [2] is T1, human histamine H3 receptor. The assay can be described thus: FLIPR functional assay (Ca2+, HEK-293 cells coexpressing Gαqi5), human H3 receptor. It is filed as cell-based. Particulars: for EC50: FLIPR agonist potency; for Emax: HEK293, read-out: Human Maximum (%). The source says: (§1) There are many methods available to show the effectiveness of compounds as histamine H3 receptor ligands. Histamine H3 receptors from mammalian species have been cloned. Methods to clone, express, and assess the potency and functional activity of such cloned genes are well known to those skilled in the art of molecular biology. […] In the present case, to determine the potency and effectiveness of representative compounds of this invention as histamine-H3 receptor ligands (H3 receptor ligands), the following tests were conducted according to previously described methods (see Esbenshade, et al., Journal of Pharmacology and Experimental Therapeutics 2003, 305, 887-896, Esbenshade, et al., Biochemical Pharmacology 2004, 68, 933-945, and in Krueger, et al., Journal of Pharmacology and Experimental Therapeutics 2005, 314, 271-281): histamine H3 receptors were cloned and stably expressed in HEK-293 (human embryonic kidney) cells coexpressing a Gαqi5. Before testing, cells were loaded with a Ca^+2 sensitive fluorescent dye, in this case Fluo-4. For partial agonist or full agonist ligands, addition of compound to the cells led to an increase in intracellular Ca^+2 which was detected by FLIPR (Fluorescence Imaging Plate Reader; Molecular Devices, Sunnyvale, Calif.) technology. The fluorescence intensities measured before addition of the test compound were subtracted from the fluorescence intensities at later time points. Peak response values determined at each concentration of ligand were expressed as a percentage of the response obtained with a maximal concentration (1 μM) of the full agonist R-α-methyl-histamine (RAMH). Concentration versus response data were analyzed to obtain compound potency as EC50 values for full and partial agonists.

Assay [3] addresses T2, rat histamine H3 receptor (Rattus norvegicus (Rat), UniProt Q9QYN8). Description: FLIPR functional assay (Ca2+, HEK-293 cells coexpressing Gαqi5), rat H3 receptor. It is filed as cell-based. To be noted: for Rat Maximum (%): FLIPR, percentage of the response to 1 μM RAMH; for EC50: FLIPR agonist potency.
Description: as §1

The test system of assay [4] is acetic acid-induced writhing. The assay can be described thus: Acetic acid-induced writhing in mice. It counts as in vivo. Particulars: subcutaneous dose of 300 mg/kg, 30 minutes prior to 0.9% acetic acid ip. As to the method:
Intraperitoneal injection of 0.9% acetic acid induces a writhing response that is quantified by counting the number of these induced characteristic lengthwise abdominal constrictions with torso elongations in a fixed time period (Langford, D. J.; et al. Science 2006, 312, 1967-1970). Reduction of the number of writhes by a compound administered 30 minutes prior to acetic acid exposure is a measure of analgesic activity.
(In writhing tests, fewer writhes than in controls are read as antinociception.)

For a further assay, the target named is H3 receptor (Mus musculus (Mouse), UniProt P58406). Description: Mouse dipsogenia model (water intake). It is filed as in vivo, CD-1 mouse. Here is the method:
Intraperitoneal administration of an H3 receptor agonist such as R-alpha-methyl-histamine elicits drinking in the hydrated CD-1 mouse (Fox, G. B.; et al. Pharmacology Biochemistry and Behavior 2002, 72, 741-750). This dipsogenic response is an indication of agonist activity in vivo and can be monitored by measuring the water intake of drug-treated animals in a 30 minute period.

The target of assay [5] is T2, rat histamine H3 receptor. The assay can be described thus: Radioligand competition binding assay, rat H3 receptor. To be noted: [3H]-N-α-methylhistamine competition binding. As to the method: To determine the effectiveness of representative compounds of this invention as histamine-3 receptor ligands (H3 receptor ligands), the following tests were conducted according to previously described methods (see European Journal of Pharmacology 1990, 188, 219-227; Journal of Pharmacology and Experimental Therapeutics 1995, 275, 598-604; Journal of Pharmacology and Experimental Therapeutics 1996, 276, 1009-1015; and Biochemical Pharmacology 1973, 22, 3099-3108).
The rat H3 receptor was cloned and expressed in cells, and competition binding assays carried out, according to methods previously described (see Esbenshade, et al. Journal of Pharmacology and Experimental Therapeutics 2005, 313, 165-175; Esbenshade et al., Biochemical Pharmacology 2004, 68, 933-945; and Krueger, et al. Journal of Pharmacology and Experimental Therapeutics 2005, 314, 271-281). Membranes were prepared from C6 or HEK293 cells, expressing the rat histamine H3 receptor, by homogenization on ice in TE buffer (50 mM Tris-HCl buffer, pH 7.4, containing 5 mM EDTA), 1 mM benzamidine, 2 μg/ml aprotinin, 1 μg/ml leupeptin, and 1 μg/ml pepstatin. The homogenate was centrifuged at 40,000 g for 20 minutes at 4° C. This step was repeated, and the resulting pellet was resuspended in TE buffer. Aliquots were frozen at −70° C. until needed. On the day of assay, membranes were thawed and diluted with TE buffer.
Membrane preparations were incubated with [^3H]-N-α-methylhistamine (0.5-1.0 nM) in the presence or absence of increasing concentrations of ligands for H3 receptor competition binding. The binding incubations were conducted in a final volume of 0.5 ml TE buffer at 25° C. and were terminated after 30 minutes. Thioperamide (30 μM) was used to define non-specific binding. All binding reactions were terminated by filtration under vacuum onto polyethylenimine (0.3%) presoaked Unifilters (Perkin Elmer Life Sciences) or Whatman GF/B filters followed by three brief washes with 2 ml of ice-cold TE buffer. Bound radiolabel was determined by liquid scintillation counting. For all of the radioligand competition binding assays, IC50 values and Hill slopes were determined by Hill transformation of the data and pKi values were determined by the Cheng-Prusoff equation.

The next assay deals with human H3R (Homo sapiens (Human), UniProt Q9Y5N1). Description: GTPγS functional assay, membranes from HEK cells expressing the human H3R. It is filed as biochemical. Particulars: for EC50: GTPγS agonist potency; for Emax: 5 min, read-out: Human Maximum (%). As to the method: (§2) Membranes from HEK cells expressing the human H3R, or from C6 cells expressing the rat H3R, were prepared by homogenization in cold buffer containing 50 mM Tris-HCl (pH 7.4), 5 mM EDTA, 10 mM MgCl2, 1 mM benzamidine, 2 μg/ml aprotinin, 1 μg/ml leupeptin, and 1 μg/ml pepstatin. The homogenate was centrifuged at 40,000 g for 20 min at 4° C., and the resulting pellet was resuspended in 50 mM Tris-HCl (pH 7.4), 5 mM EDTA, and 10 mM MgCl2 and homogenized. Glycerol and bovine serum albumin were added to a final concentration of 10% glycerol and 1% bovine serum albumin. Membranes were diluted in GTPγS assay buffer (25 mM HEPES, 2.5 mM MgCl2, and 75 mM NaCl, pH 7.4) and 10 μg of membrane protein was incubated in a 96-well deep-well block in the presence of 5.0 μM unlabeled GDP, approximately 0.5 nM of [^35S]GTPγS, and increasing concentrations of test compounds. Samples were incubated at 37° C. for 5 min and the assays were terminated by the addition of cold buffer (50 mM Tris-HCl, 75 mM NaCl, and 2.5 mM MgCl2, pH 7.6) and subsequent harvesting onto a Packard Unifilter 96-well GF/B plate followed by extensive washing. Microscint 20 (PerkinElmer Life Sciences) was added to the samples, and bound [^35S]GTPγS was determined using the Topcount (Perkin Elmer Life Sciences). The percentage of [^35S]GTPγS bound in each sample was calculated as a percentage of that bound to control samples incubated in the absence of the H3R agonists (basal). Data were analyzed from experiments performed in triplicate using GraphPad Prism to obtain pEC50 values, Hill slopes, and maximal % response.
Chain of human H3R (Q9Y5N1 whole entry): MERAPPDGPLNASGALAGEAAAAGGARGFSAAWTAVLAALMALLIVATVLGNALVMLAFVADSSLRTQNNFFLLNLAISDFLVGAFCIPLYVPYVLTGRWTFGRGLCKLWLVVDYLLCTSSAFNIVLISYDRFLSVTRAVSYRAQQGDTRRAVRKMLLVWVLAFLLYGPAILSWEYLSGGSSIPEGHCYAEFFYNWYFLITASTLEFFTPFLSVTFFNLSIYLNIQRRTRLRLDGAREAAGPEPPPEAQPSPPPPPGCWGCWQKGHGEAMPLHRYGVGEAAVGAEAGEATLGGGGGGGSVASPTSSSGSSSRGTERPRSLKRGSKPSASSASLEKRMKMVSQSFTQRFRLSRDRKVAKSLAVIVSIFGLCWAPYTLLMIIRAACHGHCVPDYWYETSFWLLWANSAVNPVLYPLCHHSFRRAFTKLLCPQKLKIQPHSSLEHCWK

In a further assay the target is rat H3R (Rattus norvegicus (Rat), UniProt Q9QYN8). The assay can be described thus: GTPγS functional assay, membranes from C6 cells expressing the rat H3R. It is filed as biochemical. Particulars: for EC50: GTPγS agonist potency; for Emax: 5 min, read-out: Rat Maximum (%). As to the method: as §2
Chain of rat H3R (Q9QYN8 whole entry): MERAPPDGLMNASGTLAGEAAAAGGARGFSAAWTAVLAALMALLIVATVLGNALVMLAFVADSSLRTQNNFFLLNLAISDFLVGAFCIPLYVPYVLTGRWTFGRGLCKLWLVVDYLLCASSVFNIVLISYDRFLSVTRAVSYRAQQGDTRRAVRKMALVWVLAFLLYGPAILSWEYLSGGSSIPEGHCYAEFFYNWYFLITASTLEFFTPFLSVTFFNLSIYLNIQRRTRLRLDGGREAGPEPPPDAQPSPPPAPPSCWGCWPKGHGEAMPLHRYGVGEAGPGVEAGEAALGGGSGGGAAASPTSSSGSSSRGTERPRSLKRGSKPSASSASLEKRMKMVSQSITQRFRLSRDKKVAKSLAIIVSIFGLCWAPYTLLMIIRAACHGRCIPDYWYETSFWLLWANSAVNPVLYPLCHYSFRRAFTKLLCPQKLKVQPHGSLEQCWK
Where [6] appears, read: FLIPR, percentage of the response to 1 μM RAMH.
The mark [7] stands for this setting: [35S]GTPγS bound as percentage of basal.

Counter-ions that a name gives are not always drawn. A value given as a limit tells only on which side of the number the result lay.

T2 sequence (Q9QYN8 whole entry): as above
T1 sequence (Q9Y5N1 whole entry): as the sequence (Q9Y5N1 whole entry) above
Chain of H3 receptor (P58406 whole entry): as the sequence (Q9QYN8 whole entry) above, with T15A, A286T, A290G, R387H, I389V counted along it

In assay [1], `Nc1nccc(N[C@H]2CC[C@H](N)CC2)n1` [Example 16, Trans-N^4-(4-aminocyclohexyl)pyrimidine-2,4-diamine] came in with a Ki of more than 363 nM. In assay [2], the EC50 stood at 17700 nM. In addition, the Emax in assay [2] (setting [6]) was determined as 34.2%. For the same molecule, the “Rat Maximum (%)” value in assay [3] is 74.0%.
Take `NCCNc1ccnc(N)n1.O=C(O)C(O)C(O)C(=O)O` [Example 1, N^4-(2-aminoethyl)pyrimidine-2,4-diamine(2R,3R)-2,3-dihydroxysuccinate]: the number of writhes result in assay [4] is on record as “significantly reduced”. Besides, the “water intake (dipsogenic response)” value at H3 receptor (dose dependently at 80, 160, and 240 μmol/kg, ip, 30 minute period, hydrated CD-1 mouse) is “induced water intake”. Further, the Ki is 63.1 nM in assay [1] and 5.5 nM in assay [5]. The EC50 in assay [2] stood at 124 nM; in assay [3] it was 5.47 nM; on human H3R, 513 nM; at rat H3R it was 174 nM. For the same molecule, the “Human Maximum (%)” value in assay [2] (setting [6]) is reported as 60.2%; at human H3R (setting [7]), 147%. Further, the “Rat Maximum (%)” value is listed as 100.0% in assay [3] and 181% at rat H3R (setting [7]).
With `O=C(c1ccc(OCCCc2cnc[nH]2)cc1)C1CC1` [ciproxifan, reference compound], the “effect on dipsogenic response to Example 1” value at H3 receptor (ciproxifan 3 μmol/kg, ip against Example 1 240 μmol/kg) is on record as “blocked”.
For the molecule `Cl.Cl.Nc1nccc(N[C@@H]2CCNC2)n1` [Example 18, (R)—N^4-(pyrrolidin-3-yl)pyrimidine-2,4-diamine dihydrochloride], the figures for the Ki in assay [1] and in assay [5] were more than 363 nM and 162 nM, respectively. Besides, the EC50 in assay [3] worked out at 74 nM; at human H3R, 2510 nM; at rat H3R, 1620 nM. Also, the “Rat Maximum (%)” value in assay [3] amounted to 78.6%. In addition, the figures for the Emax at human H3R (setting [7]) and at rat H3R (setting [7]) were 179% and 162%, respectively.
For the molecule `CC(C)(C)OC(=O)N1CC[C@@H](Nc2ccnc(N)n2)C1` [Example 17, (R)-tert-butyl 3-(2-aminopyrimidin-4-ylamino)pyrrolidine-1-carboxylate], the values for the Ki in assay [1] and in assay [5] were more than 363 nM and more than 339 nM, respectively. For the same molecule, the EC50 in assay [3] worked out at 4790 nM; at rat H3R it was 2340 nM. For the same molecule, in assay [3], the “Rat Maximum (%)” value was 75.8%. The Emax on rat H3R (setting [7]) worked out at 130%.
In the case of `Cl.Cl.Nc1nccc(N2CCC(N)CC2)n1` [Example 20, 4-(4-aminopiperidin-1-yl)pyrimidin-2-amine dihydrochloride], the values for the inhibitory constant (Ki) in assay [1] and in assay [5] were 302 nM and 58.9 nM, respectively. The half-maximal effective concentration (EC50) is 254 nM in assay [2], 51.7 nM in assay [3], 1050 nM on human H3R and 724 nM at rat H3R. Further, the Emax in assay [2] (setting [6]) was 41%; on human H3R (setting [7]) it was 122%; on rat H3R (setting [7]), 123%. Also, in assay [3], the “Rat Maximum (%)” value was found to be 83.0%.
With `NCCCNc1ccnc(N)n1` [Example 6, N^4-(3-aminopropyl)pyrimidine-2,4-diamine dihydrochloride], the Ki in assay [1] is 61.7 nM; in assay [5] it was 13.2 nM. Also, the EC50 in assay [2] came to 13.4 nM; at human H3R, 537 nM; at rat H3R it was 309 nM. Also, the values for the Emax (in assay [2] (setting [6]); at human H3R (setting [7]); at rat H3R (setting [7])) were 93%, 162% and 168%, respectively.

For orientation: Ki means a measure of affinity in units of concentration, obtained from inhibition or displacement. High values mean lower affinity, low ones higher affinity. A word on the EC50: it is the concentration that produces a half-maximal response. A higher EC50 goes with a need for much substance.
